Patent US20080113868A1, “Colorant compositions and their use as pH sensitive color indicators” (priority 2006, published 2008)

What was measured:
Type in all cases: physicochemical
[1] = Lightfastness test (AATCC Test Method 16-1993 Option E), effect of ultraviolet light
Experimental: In order to determine the effect of ultraviolet light on the de-coloration rate over time of the colorant compositions of the present invention, the colorants were subjected to a lightfastness test. The test was performed according to AATCC Test Method 16-1993 Option E. Comparative Colorants 1-4 were also tested.
The results are provided as DE CMC values and represent the color difference from the standard or control, which was white paper. […] This value for each of the time intervals is then divided by the initial DE CMC value and multiplied by 100.

[2] = Test for pH effect on de-coloration: absorbance in aqueous pH buffer solutions
Experimental: Several 1% solutions of colorant were prepared and added to standard aqueous pH buffer solutions available from VWR and Aldrich to give absorbance of less than one. The colorant solution was tested for absorbance using a DU 7 Spectrophotometer.
In general, the pKa value represents the pH value when approximately half of the colorant is converted to its colorless form. […] “Comparative” is indicated as “Comp.”

[3] = Cellulose powder staining test; conditions: on cellulose powder after stirring with deionized water for one minute
Experimental: Colorant 8 was diluted in water to an absorbtivity value of 33.5 A/g/L; then 0.73 parts was dissolved in 5 parts of methanol to give a stock solution A. One part of this solution was mixed with 10 parts of cellulose microcrystalline powder available from Aldrich. The colored powder was dried in a beaker in a 100° C. oven over 20 minutes with occasional stirring. The dry powder was cooled and stirred with 50 parts deionized water for one minute. The slurry was filtered and the filtrate was collected. The percent retention of color on the cellulose powder was calculated from the ratio of the absorbance of one part stock solution A diluted with 50 parts water and the absorbance of the filtrate solution.
The same procedure was used with a stock solution of 0.73 parts dodecenyl succinic ester acid colorant, Inventive Colorant 9, dissolved in 5 ml of methanol. The percent retention of color was determined in the same manner.

[4] = ultraviolet light exposure time 0 hours
[5] = ultraviolet light exposure time 0 hours (initial)
[6] = ultraviolet light exposure time 2 hours
[7] = ultraviolet light exposure time 5 hours
[8] = ultraviolet light exposure time 10 hours
[9] = ultraviolet light exposure time 20 hours
[10] = pH value when approximately half of the colorant is converted to its colorless form

Row | Molecule | Percent Color Fade [1, 4] | DE CMC value (color difference from white paper) [1, 5] | DE CMC value (color difference from white paper) [1, 6] | Percent Color Fade [1, 6] | DE CMC value (color difference from white paper) [1, 7] | Percent Color Fade [1, 7] | DE CMC value (color difference from white paper) [1, 8] | Percent Color Fade [1, 8] | DE CMC value (color difference from white paper) [1, 9] | Percent Color Fade [1, 9] | Absorbance ([2]; aqueous buffer pH 2) | Absorbance ([2]; aqueous buffer pH 4) | Absorbance ([2]; aqueous buffer pH 6) | Absorbance ([2]; aqueous buffer pH 7) | Absorbance ([2]; aqueous buffer pH 8) | Absorbance ([2]; aqueous buffer pH 9) | Absorbance ([2]; aqueous buffer pH 10) | pKa Value [2, 10] | Percent Color Retention [3] | pKa [2, 10]
1 | 3,4-methylenedioxyphenyl-methyliumylidene-di(4,1-phenyleneamino)N,N-polyethyleneoxy(10), Chloride [Colorant 3] | 0% | 75.15 | 36.95 | 50.83% | 34.25 | 54.42% | 33.39 | 55.57% | 29.45 | 60.81% | 0.9589 | 0.955 | 0.9609 | 0.7309 | 0.2375 | 0.0424 | 0.0199 | 7.5 | – | –
2 | 3-Methoxy-4-Polyethyleneoxide(6)phenyl-methyliumylidene-di(4,1-phenyleneamino)N,N-polyethyleneoxy(10), Chloride [Colorant 5] | 0% | 38.47 | 32.17 | 16.38% | 31.67 | 17.68% | 29.83 | 22.46% | 7.15 | 81.42% | 0.8266 | 0.8269 | 0.7735 | 0.5674 | 0.1928 | 0.0527 | 0.0312 | 7.3 | – | –
3 | 4-Methylphenyl-methyliumylidene-di(4,1-phenyleneamino)N,N-polyethyleneoxy(10), Chloride [Colorant 4] | 0% | 50.95 | 41.31 | 18.92% | 38.99 | 23.47% | 37.19 | 27.01% | 30.97 | 39.22% | 0.8881 | 0.8878 | 0.8304 | 0.569 | 0.154 | 0.0244 | 0.0079 | 7.3 | – | –
4 | CN(C)c1ccc(C(=C2C=CC(=[N+](C)C)C=C2)c2ccccc2)cc1 [Comp. Colorant 4, Basic Green 4, reference compound] | 0% | 44.71 | 14.37 | 67.86% | 13.05 | 70.81% | 9.65 | 78.42% | 5.67 | 87.32% | 0.319 | 0.3843 | 0.4546 | 0.2678 | 0.0538 | 0.0361 | 0.0111 | – | – | 7
5 | Phenyl-methyliumylidene-di(4,1-phenyleneamino)N,N-polyethyleneoxy(5), Chloride [Colorant 8] | 0% | 51.09 | 39.83 | 22.04% | 38.01 | 25.60% | 12.29 | 75.94% | 8.95 | 82.48% | – | – | – | – | – | – | – | – | 56% | –
6 | Phenyl-methyliumylidene-di(4,1-phenyleneamino)N,N-polyethyleneoxy(10), Chloride [Colorant 1] | – | – | – | – | – | – | – | – | – | – | 0.95 | 0.95 | 0.82 | 0.35 | 0.05 | 0.005 | 0.005 | 6.6 | – | –

Further lines, with some results ahead:

Row | Percent Color Fade [1, 4] | DE CMC value (color difference from white paper) [1, 5] | DE CMC value (color difference from white paper) [1, 6] | Percent Color Fade [1, 6] | DE CMC value (color difference from white paper) [1, 7] | Percent Color Fade [1, 7] | DE CMC value (color difference from white paper) [1, 8] | Percent Color Fade [1, 8] | DE CMC value (color difference from white paper) [1, 9] | Percent Color Fade [1, 9] | Absorbance ([2]; aqueous buffer pH 2) | Absorbance ([2]; aqueous buffer pH 4) | Absorbance ([2]; aqueous buffer pH 6) | Absorbance ([2]; aqueous buffer pH 7) | Absorbance ([2]; aqueous buffer pH 8) | Absorbance ([2]; aqueous buffer pH 9) | Absorbance ([2]; aqueous buffer pH 10) | pKa Value [2, 10] | Percent Color Retention [3] | Molecule | pKa [2, 10]
7 | 0% | 58.19 | 52.89 | 9.11% | 49.83 | 14.37% | 46.51 | 20.07% | 40.21 | 30.90% | 0.764 | 0.7699 | 0.7253 | – | 0.7829 | – | 0.804 | >10 | – | CCN(Cc1cccc(S(=O)(=O)[O-])c1)c1ccc(C(=C2C=CC(=[N+](CC)Cc3cccc(S(=O)(=O)[O-])c3)C=C2)c2ccccc2S(=O)(=O)[O-])cc1.[Na+].[Na+] [Comp. Colorant 3, Acid Blue 9, reference compound] | –
8 | – | – | – | – | – | – | – | – | – | – | – | – | – | – | – | – | – | – | 92.6% | Phenyl-methyliumylidene-di(4,1-phenyleneamino)N,N-polyethyleneoxy(5)-tetrakisDodecenylsuccinate acid, inner salt [Colorant 9] | –
